According to US20030144204A1, “Akt-based inducible survival switch” (Baylor College of Medicine, priority 2001, published 2003):

Legend:
[1] = system: caspase-3 and PARP in Jurkat.iAkt cells; test: Caspase-3 activation and PARP cleavage by immunoblotting
Procedure: Next, caspase-3 activation and PARP substrate cleavage were measured by immunoblotting.

Jurkat.iAkt cells = test: Apoptosis by propidium iodide staining and flow cytometry (hypodiploid cells); type: cell-based, human; settings: for etoposide-induced cell death: etoposide 0.3-100 μM, 12 hours
Procedure: Jurkat.iAkt were serum starved for 24 hours followed by pre-treatment with AP22783 in 0, 2 or 10% FBS for 40 min. After incubation with apoptosis-inducing stimuli for the periods indicated, cells were harvested and washed twice in ice-cold PBS and fixed in 70% ethanol. Cells were stained in 50 μg/ml propidium iodide and 100 μg/mlRNase A for 30 min at 37° C., and hypodiploid cells were quantitated by flow cytometry using a Beckman-Coulter EPICS XL-MCL.
Jurkat.iAkt cells were given various apoptotic insults in the presence or absence of rapalogs. Initially, the protective effects of iAkt were studied on staurosporine (STS)-induced apoptosis. […] Following serum starvation for 24 hours, Jurkat.iAkt cells were treated with 0, 0.5, or 2.0 μM STS with or without AP22783 (400 nM) for 6 hours in the absence of serum. Cell death was monitored using propidium iodide (PI) staining and flow cytometry (FCM) by quantitation of subdiploid cells.
The effects of AP22783 treatment following PI3K inhibition of Jurkat.iAkt cell were studied.
Finally, the anti-apoptotic effects of iAkt on protection from direct DNA damaging agents were examined. The anti-tumor agent, etoposide (VP16), is widely used as a chemotherapeutic drug that works by inhibiting DNA topoisomerase II, which can induce apoptosis in a variety of cell types. […] Again, the experiments were carried out in two different culture conditions with low or high FBS levels.

Akt (T308 or S473 site) = test: Western blot of Akt phosphorylation in transfected 293T cells; type: cell-based, human; settings: M-FRB12 plus F3-ΔPH.Akt, serum starved 24 hours, as early as 30 min after drug addition
Procedure: 293T cells seeded in 6-well plates were transiently transfected with 2 μg of different expression constructs in 6 μl FuGENE6 (Boehringer-Mannheim, Indianapolis, Ind.) in Opti-MEM-I medium for 24 hours followed by serum starvation for an additional 24 hours. Cells were then treated with different agents and harvested at different time points. After washing (2×) in ice-cold PBS, cell pellets were lysed in RIPA buffer containing protease inhibitors (CytoSignal, Irvine, Calif.). Equal amounts of protein from each sample were separated on 10% SDS-PAGE gels and transferred to PVDF membrane (Amersham Pharmacia Biotech, Piscataway, N.J.). Phospho-specific antibodies against Akt (T308 or S473 site) (Cell Signaling, Beverly, Mass.) were used for measuring Akt phosphorylation, and the signal was detected by AP-conjugated secondary antibodies (NEB, Beverly, Mass.) and CDP-Star chemiluminescence reagent (NEN life science, Boston, Mass.).
Briefly, 293T cells were transiently co-transfected with M-FRB1 2 and F3-ΔPH.Akt expression plasmids. After 24 hours, transfected cells were serum starved for another 24 hours and then treated with AP22783.

F3-ΔPH.Akt kinase = test: Immunoprecipitation and in vitro Akt kinase assay (GSK3α/β crosstide); type: biochemical; settings: Jurkat.iAkt serum starved 24 hours, treated 30 min, anti-HA immunoprecipitate
Procedure: Jurkat.iAktb were serum starved for 24 hours followed by treatment with AP22783 or serum for 30 min. Cells were then lysed in a lysis buffer provided with the Akt Kinase Assay kit (Cell Signaling, Beverly, Mass.), and Fpk3-ΔPH.AKT-E was immunoprecipitated with polyclonal anti-HA antibody. Antibody-antigen complexes were washed three times in lysis buffer and once in kinase buffer. In vitro kinase assays for Akt were performed using a GSK3α/β “crosstide”. The extent of crosstide phosphorylation was determined by anti-GSKα/β immunoblotting according to the manufacturer's protocol.
To further measure the induction of Akt enzymatic activity, Jurkat.iAkt cells were serum starved for 24 hours and thereafter treated with AP22783 or serum for 30 min. Chimeric F3-ΔPH.Akt.-kinase was immunoprecipitated with the anti-HA antibody and Akt kinase activity was measured using an in vitro kinase assay that uses a GSK3α/β “crosstide” as a substrate. The level of phosphorylated GSK3 crosstides was determined by immunoblotting with phospho-specific antibody against GSK3-α21/β9.

endogenous Akt and iAkt = test: Akt phosphorylation in Jurkat.iAkt cells after kinase inhibitor pretreatment; type: cell-based, human; settings: 30 min inhibitor pretreatment, then AP22783 30 min
Procedure: Jurkat.iAkt cells were serum starved for 24 hours followed by 30 min pretreatment with PI3K inhibitors, wortmannin and LY294002, or MEK inhibitor, PD98059, as a control. After inhibitor pretreatment, AP22783 was added to the media for another 30 min to mobilize membrane recruitment of iAkt.

NF-κB = test: NF-κB/SEAP reporter assay in Jurkat-TAg cells; type: cell-based, human; settings: R0318220 1 μM

`O=C(O)COc1ccccc1O` [AP22783] was tested, and the “STS-induced caspase-3 activation” value ([1]; with AP22783) was “blocked”, the “high-dose STS-induced PARP cleavage” value ([1]; with AP22783) was “reduced” and the “low-dose STS-induced PARP cleavage” value ([1]; with AP22783) was “blocked”. For the same compound, the apoptotic cells (Jurkat.iAkt cells; 2 μM STS with AP22783 400 nM, 6 hours, no serum, without background correction) was 17%, the “PI3K inhibitor-induced cell death” value (Jurkat.iAkt cells; AP22783 400 nM with wortmannin or LY294002, 2% or 10% FBS, 9 hours) was “almost totally blocked” and the CH-11-triggered apoptosis (Jurkat.iAkt cells; AP22783 400 nM, 2% or 10% FBS, 6 hours) was “rescued cells from CH-11-triggered apoptosis”. For the same compound, the etoposide-induced cell death (Jurkat.iAkt cells; AP22783 400 nM, high FBS) was “reduced etoposide-induced cell death efficiently”, the etoposide-induced cell death (Jurkat.iAkt cells; AP22783 400 nM, low FBS) was “lesser, but reproducible level of protection” and the “STS-induced toxicity (apoptosis)” value (Jurkat.iAkt cells; low-dose STS (0.5 μM) with AP22783 400 nM, 6 hours, no serum) was “fully blocked”. For the same compound, the “phosphorylation of iAkt at S473 and T308” value (Akt (T308 or S473 site)) was “greatly stimulated” and the “Akt kinase activity (GSK3 crosstide phosphorylation)” value (F3-ΔPH.Akt kinase) was “associated with GSK3 phosphorylation”.
`COc1cccc(-c2cc(=O)c3ccccc3o2)c1N` [PD98059] was tested, and the “endogenous Akt phosphorylation at T308” value (endogenous Akt and iAkt) was “no discernable effect” and the iAkt phosphorylation (endogenous Akt and iAkt) was “no discernable effect”.
In the case of `Cn1cc(C2=C(c3cn(CCCSC(=N)N)c4ccccc34)C(=O)NC2=O)c2ccccc21` [R0318220], the “NF-κB activation by M-Akt plus PKC” value (NF-κB) was “complete inhibition of NF-κB”.
`CN[C@@H]1C[C@H]2O[C@@](C)([C@@H]1OC)n1c3ccccc3c3c4c(c5c6ccccc6n2c5c31)C(=O)NC4` [STS, staurosporine] was tested, and the procaspase-3 level ([1]; STS at high-dose) was “significant reduction of procaspase-3”, the PARP cleavage ([1]; STS at low- and high-dose) was “dramatic PARP cleavage” and the apoptotic cells (Jurkat.iAkt cells; 2 μM STS, 6 hours, no serum, without AP22783, without background correction) was 36%. For the same compound, the cell death (Jurkat.iAkt cells; STS 0, 0.5 or 2.0 μM, 6 hours, no serum) was “induced cell death in a dose-response manner” and the apoptotic cells (Jurkat.iAkt cells; low-dose STS (0.5 μM), 6 hours, no serum, without AP22783) was 19.4%.
